Patent publication US20070197513A1, “Ion channel modulators” (priority 2004, published 2007)
Like-named read-outs stand apart in the source and are kept apart here.

Test system: calcium channel (e.g., L-type, N-type, etc.) current
Experiment: HEK assay: whole-cell voltage clamp in transiently transfected HEK-293T/17 cells
Format: cell-based
Settings: patch clamp, holding potential −100 mV, steps to about +10 mV
Experimental: HEK-293T/17 cells are transiently transfected in a similar manner as described in FuGENE 6 Package Insert Version 7, April 2002, Roche Applied Science, Indianapolis, Ind. The cells are plated at 2.5×10^5 cells in 2 mL in a 6-well plate in incubator for one night and achieve a 30 40% confluence. In a small sterile tube, add sufficient serum-free medium as diluent for FuGENE Transfection Reagent (Roche Applied Science, Indianapolis, Ind.), to a total volume of 100 μL. Add 3 μL of FuGENE 6 Reagent directly into this medium. The mixture is tapped gently to mix. 2 μg of DNA solution (0.8-2.0 μg/μL) is added to the prediluted FuGENE 6 Reagent from above. The DNA/Fugene 6 mixture is gently pipeted to mix the contents and incubated for about 15 minutes at room temperature. The complex mixture is then added to the HEK-293T/17 cells, distributing it around the well, and swirled to ensure even dispersal. The cells are returned to the incubator for 24 hrs. The transfected cells are then replated at density 2.5×10^5 in a 35 mm dish with 5 glass coverslips and grow in low serum(1%) media for 24 hrs. Coverslips with isolated cells are then transferred into chamber and calcium channel ([…].) current or other currents for counter screening are recorded from the transiently transfected HEK-293T/17 cells. The whole-cell voltage clamp configuration of the patch clamp technique is employed to evaluate voltage-dependent calcium currents essentially as described by Thompson and Wong (1991) J. Physiol., 439: 671-689. […] Table 3 contains IC50's for representative compounds.

| IC50 (read-out: IC50) | Structure (SMILES) | IC50 |
| --- | --- | --- |
| 0.99 µM | COc1ccccc1-c1nc(CCN2CCCC2)cn1-c1ccc(Cl)cc1 [Compound 6] |  |
| 0.173 µM | COc1ccccc1-c1nc(Cc2nc3ccccc3[nH]2)cn1-c1ccc(Cl)cc1 [Compound 2, 2-[1-(4-Chloro-phenyl)-2-(2-methoxy-phenyl)-1H-imidazol-4-ylmethyl]-1H-benzoimidazole] |  |
|  | COc1ccccc1-c1nc(CCN(C)c2ccc(F)cc2)cn1-c1ccc(Cl)cc1 [Compound 1] | 0.046 µM |
